Molecular target: T1, KCC2-S940A (Homo sapiens, UniProt Q9H2X9, S963A)
T1 construct: expressed in transfected cells; host or cells: HEK-293
T1 sequence (Q9H2X9 1-1116 isoform Q9H2X9-2 S940A): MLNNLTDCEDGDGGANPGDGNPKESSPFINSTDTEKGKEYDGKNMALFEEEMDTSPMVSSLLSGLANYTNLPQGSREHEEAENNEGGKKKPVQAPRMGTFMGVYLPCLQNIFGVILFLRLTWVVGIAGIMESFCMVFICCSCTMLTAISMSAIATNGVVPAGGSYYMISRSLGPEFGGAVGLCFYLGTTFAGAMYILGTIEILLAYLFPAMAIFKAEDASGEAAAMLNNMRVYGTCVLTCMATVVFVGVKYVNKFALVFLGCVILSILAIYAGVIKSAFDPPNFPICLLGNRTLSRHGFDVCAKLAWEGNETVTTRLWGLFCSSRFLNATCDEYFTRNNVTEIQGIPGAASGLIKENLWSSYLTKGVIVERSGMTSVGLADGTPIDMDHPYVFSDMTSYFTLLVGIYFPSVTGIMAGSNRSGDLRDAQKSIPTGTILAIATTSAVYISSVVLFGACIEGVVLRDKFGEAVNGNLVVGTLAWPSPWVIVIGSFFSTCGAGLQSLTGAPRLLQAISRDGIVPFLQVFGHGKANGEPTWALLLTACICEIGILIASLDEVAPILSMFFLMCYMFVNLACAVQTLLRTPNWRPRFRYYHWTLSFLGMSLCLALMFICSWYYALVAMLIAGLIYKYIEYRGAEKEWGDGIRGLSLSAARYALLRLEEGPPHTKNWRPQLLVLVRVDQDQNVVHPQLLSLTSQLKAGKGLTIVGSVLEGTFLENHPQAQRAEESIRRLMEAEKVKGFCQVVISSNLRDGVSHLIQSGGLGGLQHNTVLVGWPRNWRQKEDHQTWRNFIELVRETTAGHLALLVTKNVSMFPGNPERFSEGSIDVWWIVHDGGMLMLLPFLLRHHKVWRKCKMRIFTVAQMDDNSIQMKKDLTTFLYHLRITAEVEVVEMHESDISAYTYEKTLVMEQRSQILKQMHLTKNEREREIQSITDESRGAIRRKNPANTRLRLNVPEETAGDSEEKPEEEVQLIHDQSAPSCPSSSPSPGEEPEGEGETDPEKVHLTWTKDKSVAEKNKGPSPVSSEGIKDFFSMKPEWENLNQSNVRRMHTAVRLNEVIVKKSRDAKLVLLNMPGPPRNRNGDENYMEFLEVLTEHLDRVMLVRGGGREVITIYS
Assay: TI+ flux assay, HEK-293 cells expressing KCC2-S940A
Type: cell-based
Protocol: FLIPR TI Flux assay. HEK-293 cells were washed with HBSS, and then incubated with loading buffer containing TI sensitive fluorescent dye (https://www.moleculardevices.com), 20 μM bumetanide 20 μM ouabain and 2.5 mM probenecid for 1 h at room temperature (RT) under control conditions or with drugs in the dark using a FlexStation 3 microplate reader (Molecular Devices) and imaged […] for 30 min. Stimulus buffer was added containing 5 mM K^+/0.5 mM Tl^+ and cells were imaged every 1.5 over a 190 second time course The initial rate Tl^+ uptake (Relative Fluorescence Units (RFU) per second) was determined following addition of the stimulus buffer as outlined previously (Conway et al., 2017, supra) (Lee et al., 2022, supra).
Several studies have shown that the activity and plasma membrane accumulation of KCC2 is potentiated via phosphorylation of S940, a process mediated by the activity of protein kinase C and protein phosphatase 1 (Lee et al., 2011, supra; Lee et al., J Biol Chem 282, 29777-29784 (2007); Moore et al., Proc. Natl. Acad. Sci. U.S.A. 115, 10166-10171 (2018); Moore et al., Trends Neurosci. 40, 555-571 (2017); Silayeva et al., Proc. Natl. Acad. Sci. U.S.A. 112, 3523-3528 (2015)). […] Compared to KCC2, effects on KCC3, KCC4, and NKCC1 were only seen at concentrations more than 35-fold that of KCC2 (>100 μM) (FIG. 1G).

C[C@@H]1CN(c2nc3c(c(Nc4ccc(C5CCCCC5)cc4)n2)COC3)CCO1 [Compound A, (R)—N-(4-cyclohexylphenyl)-2-(2-methylmorpholino)-5,7-dihydrofuro[3,4-d]pyrimidin-4-amine]
activity of KCC2-S940A construct: increased the activity
